# Measurements: PMC9944328 (Nature Communications, 2023)
# Several values for one entry are separate records, joined by “and”; a condition that tells them apart may be missing. Equal values may be shown once. Read-outs that look alike come from different tables or passages of the source.
# Experiments:
# SSTR2 mutants [1] = molecular target: SSTR2 mutants (Homo sapiens, UniProt P30874); experiment: SSTRs Gi-mediated cAMP inhibition, GloSensor, HEK293, 5 μM forskolin, 15 min room temperature (SSTR2 mutants); type: cell-based; design: Best-fit Bottom, cAMP inhibition / Best-fit Top, cAMP inhibition / Span, cAMP inhibition / Bottom (best-fit value) / Top (best-fit value) / Span (best-fit value) / Span (best-fit) / Bottom (best-fit) / Top (best-fit) / Best-fit Bottom / Best-fit Top / Best-fit Span / Top / Span: scale not given here
# Sequence of SSTR2 mutants (Homo sapiens, UniProt P30874) (P30874 whole entry Y205R): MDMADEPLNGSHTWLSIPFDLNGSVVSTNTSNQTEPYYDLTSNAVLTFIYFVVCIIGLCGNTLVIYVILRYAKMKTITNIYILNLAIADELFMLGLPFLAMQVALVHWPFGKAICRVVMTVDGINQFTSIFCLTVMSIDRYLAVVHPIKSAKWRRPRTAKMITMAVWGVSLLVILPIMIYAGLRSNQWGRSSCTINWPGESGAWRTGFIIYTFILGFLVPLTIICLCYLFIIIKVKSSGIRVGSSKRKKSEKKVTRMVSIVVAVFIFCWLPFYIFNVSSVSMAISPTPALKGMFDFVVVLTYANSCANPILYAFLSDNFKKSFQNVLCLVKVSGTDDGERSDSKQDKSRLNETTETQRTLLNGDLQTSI
# Procedure: (§1) The levels of the intracellular 3′, 5′-cyclic AMP (cAMP) were measured by the GloSensor cAMP assay (Promega) as described in the previous studies[28],[41] which has been widely used. The human full-length SSTRs and mutants were cloned into the pcDNA3.1+ vector with a HA signal sequence followed by a Flag tag at the N-terminus. HEK293 cells (ATCC, CRL-1573) were seeded into 6-well microplates at a density of 1.0 × 10^6 cells/well and cultured for 24 h at 37 °C with 5% CO2. Cells were then co-transfected with SSTR wild-type or mutants and GloSensor plasmids. After 24 h of transfection, the cells were dissociated with TrypLE™ Express Enzyme (1X) (Thermo Fisher Scientific) and collected by centrifugation at 500 × g for 5 min. Then the collected cells were suspended in Hank’s balanced salt solution [HBSS (Thermo Fisher Scientific)] supplemented with […] (YEASEN), and then the suspension cells were seeded into 96-well plates with 90 μl/well. After incubating at room temperature for 40 min, 5 μM forskolin and ligands diluted in HBSS were added to each well and the plates were incubated at room temperature for 15 min. […] were measured using the Synergy H1 microplate reader (BioTek) and the data presented are means of at least three independent experiments.
# SSTR2 mutants [2] = molecular target: T1, SSTR2 mutants (Homo sapiens, UniProt P30874, I195A); experiment: as above; type: cell-based; design: Best-fit Bottom, cAMP inhibition / Best-fit Top, cAMP inhibition / Span, cAMP inhibition / Bottom (best-fit value) / Top (best-fit value) / Span (best-fit value) / Span (best-fit) / Bottom (best-fit) / Top (best-fit) / Best-fit Bottom / Best-fit Top / Best-fit Span / Top / Span: scale not given here; conditions: I195A, best-fit, runs 1-3
# T1 construct: The human full-length SSTRs and mutants were cloned into the pcDNA3.1+ vector; expressed in transfected cells; host or cells: HEK293 (ATCC, CRL-1573)
# T1 sequence (P30874 whole entry I195A): as the sequence (P30874 whole entry Y205R) above, with I195A, R205Y counted along it
# Procedure: as §1
# SSTR2 mutants [3] = molecular target: T2, SSTR2 mutants (Homo sapiens, UniProt P30874, L99A); experiment: as above; type: cell-based; design: Best-fit Bottom, cAMP inhibition / Best-fit Top, cAMP inhibition / Span, cAMP inhibition / Bottom (best-fit value) / Top (best-fit value) / Span (best-fit value) / Span (best-fit) / Bottom (best-fit) / Top (best-fit) / Best-fit Bottom / Best-fit Top / Best-fit Span / Top / Span: scale not given here; conditions: L99A, best-fit, runs 1-3
# T2 construct: The human full-length SSTRs and mutants were cloned into the pcDNA3.1+ vector; expressed in transfected cells; host or cells: HEK293 (ATCC, CRL-1573)
# T2 sequence (P30874 whole entry L99A): as the sequence (P30874 whole entry Y205R) above, with L99A, R205Y counted along it
# Procedure: as §1
# SSTR2 mutants [4] = molecular target: T3, SSTR2 mutants (Homo sapiens, UniProt P30874, Y50A); experiment: as above; type: cell-based; design: Best-fit Bottom, cAMP inhibition / Best-fit Top, cAMP inhibition / Span, cAMP inhibition / Bottom (best-fit value) / Top (best-fit value) / Span (best-fit value) / Span (best-fit) / Bottom (best-fit) / Top (best-fit) / Best-fit Bottom / Best-fit Top / Best-fit Span / Top / Span: scale not given here; conditions: Y50A, best-fit, runs 1-3
# T3 construct: The human full-length SSTRs and mutants were cloned into the pcDNA3.1+ vector; expressed in transfected cells; host or cells: HEK293 (ATCC, CRL-1573)
# T3 sequence (P30874 whole entry Y50A): as the sequence (P30874 whole entry Y205R) above, with Y50A, R205Y counted along it
# Procedure: as §1
# SSTR3 = molecular target: T4, SSTR3 (Homo sapiens, UniProt P32745); experiment: SSTRs Gi-mediated cAMP inhibition, GloSensor, HEK293 (SSTR3 wild-type); type: cell-based; design: Bottom / Top / Span / Top (best-fit): unit not given here; conditions: for Emax: HEK293; for LogEC50 (best-fit) / Top (best-fit): cAMP inhibition
# T4 construct: The human full-length SSTRs and mutants were cloned into the pcDNA3.1+ vector; expressed in transfected cells; host or cells: HEK293 (ATCC, CRL-1573)
# T4 sequence (P32745 whole entry): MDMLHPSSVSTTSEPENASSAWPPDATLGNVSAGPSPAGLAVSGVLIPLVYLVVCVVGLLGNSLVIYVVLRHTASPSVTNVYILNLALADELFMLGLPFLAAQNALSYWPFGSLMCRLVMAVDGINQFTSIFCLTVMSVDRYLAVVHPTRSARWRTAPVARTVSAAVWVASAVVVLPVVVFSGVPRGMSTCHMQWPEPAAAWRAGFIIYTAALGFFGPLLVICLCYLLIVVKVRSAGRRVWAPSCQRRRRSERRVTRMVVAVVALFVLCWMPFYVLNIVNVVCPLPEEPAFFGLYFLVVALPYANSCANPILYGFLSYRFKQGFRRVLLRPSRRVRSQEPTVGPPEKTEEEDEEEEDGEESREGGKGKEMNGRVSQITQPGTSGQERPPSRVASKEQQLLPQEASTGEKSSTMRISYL
# Procedure: as §1, with “HEK293 cells (ATCC, CRL-1573) were seeded into 6-well microplates at a density of 1.0 × 10^6 cells/well and cultured for 24 h at 37 °C with 5% CO2.” left out
# SSTR2 mutants [5] = molecular target: SSTR2 mutants (Homo sapiens, UniProt P30874, N276A); experiment: cell-based
# Sequence of SSTR2 mutants (Homo sapiens, UniProt P30874, N276A) (P30874 whole entry N276A): as the sequence (P30874 whole entry Y205R) above, with R205Y, N276A counted along it
# SSTR2 mutants [6] = molecular target: SSTR2 mutants (Homo sapiens, UniProt P30874, R140A); experiment: cell-based
# Sequence of SSTR2 mutants (Homo sapiens, UniProt P30874, R140A) (P30874 whole entry R140A): as the sequence (P30874 whole entry Y205R) above, with R140A, R205Y counted along it
# SSTR2 mutants [7] = molecular target: SSTR2 mutants (Homo sapiens, UniProt P30874, Y312A); experiment: cell-based
# Sequence of SSTR2 mutants (Homo sapiens, UniProt P30874, Y312A) (P30874 whole entry Y312A): as the sequence (P30874 whole entry Y205R) above, with R205Y, Y312A counted along it
# [8] = Suppl. Tables 4/5, SSTR3-WT, n=5
# [9] = best-fit, SSTR3 WT-1 (F296D set)
# [10] = best-fit, SSTR3 WT-1 (H192T set)
# [11] = best-fit, SSTR3 WT-1 (M193I set)
# [12] = best-fit, SSTR3 WT-1 (N101V set)
# [13] = best-fit, SSTR3 WT-2 (F296D set)
# [14] = best-fit, SSTR3 WT-2 (H192T set)
# [15] = best-fit, SSTR3 WT-2 (M193I set)
# [16] = best-fit, SSTR3 WT-2 (N101V set)
# [17] = best-fit, SSTR3 WT-3 (F296D set)
# [18] = best-fit, SSTR3 WT-3 (M193I set)
# [19] = best-fit, SSTR3 WT-3 (N101V set)
structure (smiles),measurement,setting,value
N#Cc1cccc(-c2ccc3ncc(-c4cc(F)cc(F)c4)c(N4CCC(N)CC4)c3c2)c1O [paltusotine],EC50,"SSTR2 mutants [1]; EC50, D295F, run 1",0.324 nM
same,EC50,"SSTR2 mutants [1]; EC50, D295F, run 2",0.205 nM
same,EC50,"SSTR2 mutants [1]; EC50, D295F, run 3",1.56 nM
same,EC50,"SSTR2 mutants [1]; EC50, F294Y, run 1",0.735 nM
same,EC50,"SSTR2 mutants [1]; EC50, F294Y, run 3",0.676 nM
same,EC50,"SSTR2 mutants [1]; EC50, Y205R, run 1",0.344 nM
same,EC50,"SSTR2 mutants [1]; EC50, Y205R, run 2",0.237 nM
same,Span,SSTR2 mutants [2],93.79 and 93.25 and 119.7
same,Top,SSTR2 mutants [2],101.8 and 93.82 and 123
same,Span,SSTR2 mutants [3],97 and 104.2 and 101.2
same,Top,SSTR2 mutants [3],103.3 and 108.8 and 111.2
same,Span,SSTR2 mutants [4],121 and 122.3
same,Top,SSTR2 mutants [4],113.5 and 115.2 and 115.4
same,EC50,SSTR3,2.6 nM
same,Emax,SSTR3; [8],36.7 ± 11.7%
same,Fold of WT,"SSTR3; Suppl. Tables 4/5, SSTR3-WT",1
same,EC50,"SSTR3; Suppl. Tables 4/5, SSTR3-WT, n=5, read-out: EC50",63.8 ± 1.33 nM
same,Bottom,SSTR3; [9],7.289
same,LogEC50,SSTR3; [9],-5.765
same,Span,SSTR3; [9],89.66
same,Top,SSTR3; [9],96.95
same,Bottom,SSTR3; [10],-24.33
same,LogEC50,SSTR3; [10],-7.352
same,Span,SSTR3; [10],140.2
same,Top,SSTR3; [10],115.9
same,EC50,"SSTR3; best-fit, SSTR3 WT-1 (H192T set), read-out: EC50",44.5 nM
same,Bottom,SSTR3; [11],2.721
same,LogEC50,SSTR3; [11],-7.195
same,Span,SSTR3; [11],103.1
same,Top,SSTR3; [11],105.9
same,EC50,"SSTR3; best-fit, SSTR3 WT-1 (M193I set), read-out: EC50",63.8 nM
same,Bottom,SSTR3; [12],2.721
same,LogEC50,SSTR3; [12],-7.195
same,Span,SSTR3; [12],103.1
same,Top,SSTR3; [12],105.9
same,EC50,"SSTR3; best-fit, SSTR3 WT-1 (N101V set), read-out: EC50",63.8 nM
same,Bottom,SSTR3; [13],2.721
same,LogEC50,SSTR3; [13],-7.195
same,Span,SSTR3; [13],103.1
same,Top,SSTR3; [13],105.9
same,EC50,"SSTR3; best-fit, SSTR3 WT-2 (F296D set), read-out: EC50",63.8 nM
same,Bottom,SSTR3; [14],-19.9
same,LogEC50,SSTR3; [14],-7.557
same,Span,SSTR3; [14],137.3
same,Top,SSTR3; [14],117.4
same,EC50,"SSTR3; best-fit, SSTR3 WT-2 (H192T set), read-out: EC50",27.7 nM
same,Bottom,SSTR3; [15],-0.9229
same,LogEC50,SSTR3; [15],-7.198
same,Span,SSTR3; [15],106.7
same,Top,SSTR3; [15],105.8
same,EC50,"SSTR3; best-fit, SSTR3 WT-2 (M193I set), read-out: EC50",63.4 nM
same,Bottom,SSTR3; [16],-0.442
same,LogEC50,SSTR3; [16],-8.585
same,Span,SSTR3; [16],97.55
same,Top,SSTR3; [16],97.11
same,Bottom,SSTR3; [17],-0.9229
same,LogEC50,SSTR3; [17],-7.198
same,Span,SSTR3; [17],106.7
same,Top,SSTR3; [17],105.8
same,EC50,"SSTR3; best-fit, SSTR3 WT-3 (F296D set), read-out: EC50",63.4 nM
same,Bottom,SSTR3; [18],-0.442
same,LogEC50,SSTR3; [18],-8.585
same,Span,SSTR3; [18],97.55
same,Top,SSTR3; [18],97.11
same,Bottom,SSTR3; [19],-0.9229
same,LogEC50,SSTR3; [19],-7.198
same,Span,SSTR3; [19],106.7
same,Top,SSTR3; [19],105.8
same,EC50,"SSTR3; best-fit, SSTR3 WT-3 (N101V set), read-out: EC50",63.4 nM
same,EC50,SSTR2 mutants [5],145.2 ± 1.11 nM
same,EC50,SSTR2 mutants [6],7.8 ± 1.47 nM
same,EC50,SSTR2 mutants [7],8.13 ± 1.64 nM
C[C@@H](O)[C@@H]1NC(=O)[C@H](CCCCN)NC(=O)[C@@H](Cc2c[nH]c3ccccc23)NC(=O)[C@H](Cc2ccccc2)NC(=O)[C@@H](NC(=O)[C@H](N)Cc2ccccc2)CSSC[C@@H](C(=O)N[C@H](CO)[C@@H](C)O)NC1=O [octreotide],Emax,SSTR3; [8],99.8 ± 8.21%
same,LogEC50 (best-fit),"SSTR3; SSTR3-WT, run 1",-7.262
same,Top (best-fit),"SSTR3; SSTR3-WT, run 1",103
same,LogEC50 (best-fit),"SSTR3; SSTR3-WT, run 2",-7.521
same,Top (best-fit),"SSTR3; SSTR3-WT, run 2",99.85
same,LogEC50 (best-fit),"SSTR3; SSTR3-WT, run 3",-7.466
same,Top (best-fit),"SSTR3; SSTR3-WT, run 3",98.24
same,LogEC50 (best-fit),"SSTR3; SSTR3-WT, run 4",-8.231
same,Top (best-fit),"SSTR3; SSTR3-WT, run 4",100.3
